Test results: publication PMC10518257 (Nature Cancer, 2023)
Values joined by “and” are separate entries in the source; they are usually repeats but may differ in a detail not shown here. Equal values may be shown once. Read-outs that look alike come from different tables or passages of the source.

Experiments:
Ba/F3 cells = assay: Growth inhibition assay in Ba/F3 cells (CellTiter-Glo, 72 h); type: cell-based
Ba/F3-CCDC6::RET^S904F = assay: as above; type: cell-based
Ba/F3-RET^M918T = assay: as above; type: cell-based; settings: Mus musculus, BaF3, 72 h, read-out: GI50 value (Mean ± SD), Ba/F3-RET^M918T, CellTiter-Glo, 72 h
[1] = system: Ba/F3 cells expressing KIF5B–RET^G810R; assay: as above; type: cell-based; settings: replicate Sets 1-3
[2] = system: Ba/F3 cells expressing KIF5B–RET^V804L; assay: as above; type: cell-based; settings: replicate sets
[3] = system: phosphorylation of RET^G810R, RET^G810S and RET^G810C in Ba/F3 cells; assay: Western blotting of RET phosphorylation in Ba/F3 KIF5B–RET cells; type: cell-based; settings: 1 h, western blot
[4] = system: HBECp53-RET cells (CCDC6-RET fusion); assay: Growth inhibition (alamarBlue, 96 h); type: cell-based, human; settings: for raw viability signal (Source Data Fig. 3b-c): HBEC-RET, replicate sets
LC-2/ad cells = assay: Growth inhibition (alamarBlue, 96 h); type: cell-based, human; settings: for raw viability signal (Source Data Fig. 3b-c): LC-2/Ad, replicate sets
LUAD-0086AS3 cells = assay: Growth inhibition (alamarBlue, 96 h); type: cell-based, human; settings: for raw viability signal (Source Data Fig. 3b-c): LUAD-0086AS3 (n=1, 3 replicates)
LUAD-0002AS1 cells = assay: Growth inhibition (alamarBlue, 96 h); type: cell-based, human; settings: for raw viability signal (Source Data Fig. 3b-c): LUAD-0002AS1, replicate sets
LUAD-0087AS2 cells = assay: Growth inhibition (alamarBlue, 96 h); type: cell-based, human; settings: for raw viability signal (Source Data Fig. 3b-c): LUAD-0087AS2, replicate sets
[5] = Homo sapiens, 96 h, read-out: IC50 for Inhibition of Growth (95% CI)

SMILES: COc1ccc(CN2C3CC2CN(c2ccc(-c4cc(OCC(C)(C)O)cn5ncc(C#N)c45)cn2)C3)cn1 [Selpercatinib]
- GI50 (Ba/F3 cells; Ba/F3 (parental), replicate Sets 1-3): 3870 nM and 3570 nM
- GI50 (Ba/F3 cells; Mus musculus, BaF3, 72 h, read-out: GI50 value (Mean ± SD), Ba/F3, CellTiter-Glo, 72 h): 3980 nM
- GI50 (Ba/F3 cells; Mus musculus, BaF3, Ba/F3 (parental), replicate Sets 1-3): 4490 nM
- GI50 (Ba/F3-CCDC6::RET^S904F; Mus musculus, BaF3, 72 h, read-out: GI50 value (Mean ± SD), Ba/F3-CCDC6::RET^S904F, CellTiter-Glo, 72 h): 4.76 ± 3.02 nM
- GI50 (Ba/F3-CCDC6::RET^S904F; read-out: GI50 values, Ba/F3-CCDC6::RET S904F, individual sets (replicate experiments)): 4.25 nM and 8 nM and 2.03 nM
- GI50 (Ba/F3-RET^M918T): 1.24 ± 0.78 nM
- GI50 ([1]; Ba/3-KIF5B-RET-G810R): 1070 nM and 1190 nM
- GI50 ([1]; Mus musculus, BaF3, Ba/3-KIF5B-RET-G810R): 800 nM
- GI50 ([2]; Ba/3-KIF5B-RET-V804L): 8.67 nM and 7.06 nM
- GI50 ([2]; Mus musculus, BaF3, Ba/3-KIF5B-RET-V804L): 5.67 nM
- block of phosphorylation of RET^G810R, RET^G810S or RET^G810C [3]: did not block
- raw viability signal (Source Data Fig. 3b-c) ([4]; 0.01 nM): 18093.2 and 9060.84 and 18084.5
- raw viability signal (Source Data Fig. 3b-c) ([4]; 0.1 nM): 17267.5 and 9270.44 and 17759.2
- raw viability signal (Source Data Fig. 3b-c) ([4]; 1 nM): 17188.9 and 9066.79 and 17837.1
- raw viability signal (Source Data Fig. 3b-c) ([4]; 10 nM): 6462.76 and 8147.32 and 16191.8
- raw viability signal (Source Data Fig. 3b-c) ([4]; 100 nM): 3445.11 and 2694.56 and 6209.19
- raw viability signal (Source Data Fig. 3b-c) ([4]; 1000 nM): 2899.6 and 1772.22 and 5277.83
- raw viability signal (Source Data Fig. 3b-c) ([4]; 10000 nM): 2192.17 and 1006.02 and 4021.33
- IC50 ([4]; Homo sapiens, 96 h, read-out: IC50 for Inhibition of Growth (95% CI), HBECp53-RET, alamarBlue, 96 h): 26 nM
- IC50 (LC-2/ad cells; Homo sapiens, LC-2-ad, 96 h, read-out: IC50 for Inhibition of Growth (95% CI)): 12 nM
- raw viability signal (Source Data Fig. 3b-c) (LC-2/ad cells; 0.01 nM): 13499 and 23395.2
- raw viability signal (Source Data Fig. 3b-c) (LC-2/ad cells; 0.1 nM): 14768.6 and 22354.3
- raw viability signal (Source Data Fig. 3b-c) (LC-2/ad cells; 1 nM): 11358.1 and 22611.3
- raw viability signal (Source Data Fig. 3b-c) (LC-2/ad cells; 10 nM): 5849.16 and 13692
- raw viability signal (Source Data Fig. 3b-c) (LC-2/ad cells; 100 nM): 4303.48 and 6998.63
- raw viability signal (Source Data Fig. 3b-c) (LC-2/ad cells; 1000 nM): 4639.86 and 5076.98
- raw viability signal (Source Data Fig. 3b-c) (LC-2/ad cells; 10000 nM): 1761.41 and 1760.41
- IC50 (LUAD-0086AS3 cells; [5]): 84 nM
- raw viability signal (Source Data Fig. 3b-c) (LUAD-0086AS3 cells; 0.01 nM): 32605.6 and 32345.5 and 24840.6
- raw viability signal (Source Data Fig. 3b-c) (LUAD-0086AS3 cells; 0.1 nM): 24088.4 and 24382.4 and 28533.2
- raw viability signal (Source Data Fig. 3b-c) (LUAD-0086AS3 cells; 1 nM): 21980.7 and 23036.6 and 27631.4
- raw viability signal (Source Data Fig. 3b-c) (LUAD-0086AS3 cells; 10 nM): 22728.2 and 21261.8 and 26828.6
- raw viability signal (Source Data Fig. 3b-c) (LUAD-0086AS3 cells; 100 nM): 13108.2 and 14842.7 and 15753
- raw viability signal (Source Data Fig. 3b-c) (LUAD-0086AS3 cells; 1000 nM): 5050.52 and 4540.04 and 5107.48
- raw viability signal (Source Data Fig. 3b-c) (LUAD-0086AS3 cells; 10000 nM): 1139.12 and 1223.75 and 1244.48
- IC50 (LUAD-0002AS1 cells; [5]): 3 nM
- raw viability signal (Source Data Fig. 3b-c) (LUAD-0002AS1 cells; 0.01 nM): 16631.5 and 13192.5 and 12693
- raw viability signal (Source Data Fig. 3b-c) (LUAD-0002AS1 cells; 0.1 nM): 14296.3 and 14495.9 and 14138.2
- raw viability signal (Source Data Fig. 3b-c) (LUAD-0002AS1 cells; 1 nM): 14160.4 and 9635.41 and 11277.7
- raw viability signal (Source Data Fig. 3b-c) (LUAD-0002AS1 cells; 10 nM): 3799.84 and 3179.94 and 4108.28
- raw viability signal (Source Data Fig. 3b-c) (LUAD-0002AS1 cells; 100 nM): 2188.78 and 2790.7 and 3166.11
- raw viability signal (Source Data Fig. 3b-c) (LUAD-0002AS1 cells; 1000 nM): 1304.58 and 2278.18 and 2772.5
- raw viability signal (Source Data Fig. 3b-c) (LUAD-0002AS1 cells; 10000 nM): 935.372 and 1860.61 and 2356.9
- IC50 (LUAD-0087AS2 cells; [5]): 11 nM
- raw viability signal (Source Data Fig. 3b-c) (LUAD-0087AS2 cells; 0.01 nM): 15388.6 and 12720.2
- raw viability signal (Source Data Fig. 3b-c) (LUAD-0087AS2 cells; 0.1 nM): 16047 and 13628.3
- raw viability signal (Source Data Fig. 3b-c) (LUAD-0087AS2 cells; 1 nM): 15441.4 and 12355.8
